In US20180344702A1, “METHODS FOR TREATING PATIENTS WITH HEMATOLOGIC MALIGNANCIES” (Aptose Biosciences, Inc., priority 2017, published 2018):

Tests used:
C481S BTK = target: T1, C481S BTK (Homo sapiens, UniProt Q06187, C481S); experiment: BTK phosphorylation in transfected HEK293T cells (Western blot); type: cell-based; details: HEK293T transfected with C481S BTK; 0.5 and 1.0 μM, six hours
T1 construct: expressed in transfected cells; host or cells: HEK293T
Method: (§1) HEK293T cells were transiently transfected with wild-type BTK or C481S BTK. The transfected cells were treated with or without Compound 7 (0.5 and 1.0 μM) for six hours. This was performed in triplicate and the results were analyzed by Western Blot analysis.

wild-type BTK = target: T2, wild-type BTK (Homo sapiens, UniProt Q06187); experiment: as above; type: cell-based; details: HEK293T transfected with wild-type BTK; 0.5 and 1.0 μM, six hours
T2 construct: expressed in transfected cells; host or cells: HEK293T
T2 sequence (Q06187 whole entry): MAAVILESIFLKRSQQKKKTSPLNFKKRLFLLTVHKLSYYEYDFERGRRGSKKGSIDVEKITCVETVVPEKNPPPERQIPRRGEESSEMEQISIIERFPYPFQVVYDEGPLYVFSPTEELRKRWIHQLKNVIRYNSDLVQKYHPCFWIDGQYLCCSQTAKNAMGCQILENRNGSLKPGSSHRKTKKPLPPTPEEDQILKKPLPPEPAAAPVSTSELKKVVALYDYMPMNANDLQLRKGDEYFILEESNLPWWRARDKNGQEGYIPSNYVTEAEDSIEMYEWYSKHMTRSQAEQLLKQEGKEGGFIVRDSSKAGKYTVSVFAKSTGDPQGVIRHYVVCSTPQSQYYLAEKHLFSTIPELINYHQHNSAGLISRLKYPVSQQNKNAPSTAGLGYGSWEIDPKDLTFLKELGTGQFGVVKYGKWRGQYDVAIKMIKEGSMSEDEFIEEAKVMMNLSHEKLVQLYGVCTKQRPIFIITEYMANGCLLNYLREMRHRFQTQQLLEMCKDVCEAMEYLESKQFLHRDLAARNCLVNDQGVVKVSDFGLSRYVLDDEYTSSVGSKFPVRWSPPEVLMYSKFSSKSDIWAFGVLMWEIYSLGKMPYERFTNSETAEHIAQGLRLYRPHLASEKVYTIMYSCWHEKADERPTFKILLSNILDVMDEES
Method: as §1

T1 sequence (Q06187 whole entry C481S): as the sequence (Q06187 whole entry) above, with C481S counted along it

Cc1cnc(-c2ccc(-c3ccc(NC(=O)Nc4c(F)cc(F)cc4F)cc3F)c3c2C(=O)NC3)[nH]1 [Compound 7, 1-{3-fluoro-4-[7-(5-methyl-1H-imidazol-2-yl)-1-oxo-2,3-dihydro-1H-isoindol-4-yl]-phenyl}-3-(2,4,6-trifluorophenyl)urea]
Inhibition of BTK (reduction in phosphorylated forms) (C481S BTK): inhibits both wild-type and the C481S mutant form of BTK
Inhibition of BTK (reduction in phosphorylated forms) (wild-type BTK): inhibits both wild-type and the C481S mutant form of BTK
